Results as given in patent US7977489B2, “Benzylthiazolone inhibitors of estrogen-related receptors (ERR)” (Exelixis, Inc., priority 2004, dated 2011).

Molecular target: T1, ERRα (Homo sapiens, UniProt P11474)
T1 construct: expressed in transfected cells; host or cells: CV-1 (African green monkey kidney) cells, transient transfection with CMX-GAL4-ERRα
T1 sequence (P11474 174-423): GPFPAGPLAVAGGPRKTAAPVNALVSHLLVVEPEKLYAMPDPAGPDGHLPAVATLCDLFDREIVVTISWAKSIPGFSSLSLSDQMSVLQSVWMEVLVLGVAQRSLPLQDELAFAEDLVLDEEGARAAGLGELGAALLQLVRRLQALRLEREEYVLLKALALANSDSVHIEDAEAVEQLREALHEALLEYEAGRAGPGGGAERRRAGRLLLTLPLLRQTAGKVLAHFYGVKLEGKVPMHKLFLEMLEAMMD
Assay: GAL4-ERRα co-transfection assay (luciferase reporter, CV-1 cells)
Type: cell-based
Conditions: for Emax: CV-1, average percent inhibition of ERRα activity relative to control 3-[4-(2,4-Bis-trifluoromethyl-benzyloxy)-3-methoxy-phenyl]-2-cyano-N-(5-trifluoromethyl-[1,3,4]thiadiazol-2-yl)-acrylamide; for IC50: average IC50 for inverse agonist activity in the GAL4-ERRα assay, CV-1 cells
Protocol: Compound activity was also determined in a cell based assay using a GAL4-ERRα chimera to identify active compounds.
CMX-GAL4-ERRα was constructed by cloning nucleotides encoding amino acids 174-423 of ERRα (see GenBank sequence XM048286) into the vector pCMX-GAL4 (Perlmann et al., 1993, Genes & Development 7:1411-1422) comprising nucleotides encoding for amino acids 1-147 of the GAL4 DNA binding domain.
The TK-MH100×4-Luc (GAL4UAS-TK-Luciferase) reporter constructs were constructed by insertion of four copies of the Gal4 UAS (Kang et al. 1993, J. Biol. Chem. 268:9629-9635) into the Hind III site of TK-Luc. The parental plasmid TK-Luc was prepared by insertion of the Herpes simplex virus thymidine kinase gene promoter (−105 to +51) obtained from the plasmid pBLCAT2 by digestion with HindIII and XhoI (described in Luckow et al., 1987, Nuc. Acid. Res. 15:5490) into the plasmid MTV-LUC described by Hollenberg and Evans, 1988, Cell 55:899-906) after removal of MTV-LTR promoter sequence from MTV-LUC via digestion with HindIII and XhoI. Correct cloning was confirmed by restriction digestion and or sequencing.
Assays were performed using CV-1 (African Green Monkey Kidney Cells) (ATCC) cells at 70 percent confluency in T175 flasks grown with media containing 10% charcoal/Dextran-treated fetal bovine serum. Cells were transiently transfected with a DNA mixture containing 12 μg of CMX-GAL4-ERRα (comprising the ligand binding domain), […] of TK-MH100×4-Luc, and 2 μg of CMX-βGal using the transfection reagent FuGENE6 (Roche Molecular Biochemicals, Indianapolis, Ind.) following recommended protocols and instructions provided by the manufacturer. Following incubation with transfection reagents for 5 hours at 37° C., cells were washed, removed from the flasks with 1× Trypsin-EDTA solution (Sigma-Aldrich, Inc. St. Louis, Mo., and then resuspended in media containing 5% charcoal/Dextran-treated fetal bovine serum to give a final concentration of 1.1×10^5 cells/ml.
Assay plates were prepared by dispensing approximately 5 μl of each compound into a well of a 384 well plate to achieve a final compound concentration of approximately 10 μM after addition of cells. Cells were added to assay plates (45 μl) via the use of a Multiprop dispenser (MTX Labs, Inc., Vienna, Va.). The assay plates containing both compounds and screening cells were incubated for approximately 20 hours at 37° C. and 5% CO2 in a tissue culture incubator.
After incubation of the transfected cells with compounds, Lysis buffer (1% Triton X-100, 10% Glycerol, 5 mM DTT, 1 mM EGTA, 25 mM Tricine) and Luciferin assay buffer (0.73 mM ATP, 22.3 mM Tricine, 0.11 mM EDTA, 33.3 mM DTT, 0.2M MgSO4, 11 mM Luciferin, 6.1 mM Coenzyme A, 0.01 mM HEPES) were prepared. Media was removed from the plates and lysis buffer and luciferin assay buffer mixed in a 1:1 ratio and then 30 μl was added to each well (384-well plate). Plates were read on the Northstar (Northstar Technologies, Inc., Acton, Mass.) and data was analyzed using ActivityBase (ID Business Solutions, Ltd., Guildford, Surrey, UK). Luciferase values were normalized with β-galactosidase values using the pCMX-βGal expression plasmid, to normalize for transfection efficiency as described previously (Willy et al., 1995, Gene & Development, 9:1033-1045).
No reporter-driven luciferase activity was observed without ERR transfection, indicating the ERR-dependency of the compounds.
The following table provides in vitro ERRα activity data of representative compounds described in the Examples. Average IC50 values for inverse agonist activity in the GAL4-ERRα assay are provided as follows: V: less than 0.5 μM; W: 0.5 μM-1 μM; X: 1 μM to 2 μM and Y: 2 μM to 5 μM. Average percent inhibition with respect to ERRα activity relative to a control (3-[4-(2,4-Bis-trifluoromethyl-benzyloxy)-3-methoxy-phenyl]-2-cyano-N-(5-trifluoromethyl-[1,3,4]thiadiazol-2-yl)-acrylamide) is provided as follows. […]

Which Emax does the source give for `COc1cc(C=C2SC(N3CC(C)OC(C)C3)=NC2=O)ccc1OCc1ccc(C(F)(F)F)cc1C(F)(F)F` (stereo not shown) [5-[1-[4-(2,4-Bis-trifluoromethyl-benzyloxy)-3-methoxy-phenyl]-methylidene]-2-(2,6-dimethyl-morpholin-4-yl)-thiazol-4-one] here?
Its Emax is 100 to 120%.

And the IC50?
Its IC50 is 1 to 2 µM.

What does the source list for `COc1cc(C=C2SC(N3CCCC3c3ccccn3)=NC2=O)ccc1OCc1ccc(C(F)(F)F)cc1C(F)(F)F` (stereo not shown) [5-[1-[4-(2,4-Bis-trifluoromethyl-benzyloxy)-3-methoxy-phenyl]-methylidene]-2-(2-pyridin-2-yl-pyrrolidin-1-yl)-thiazol-4-one]?
Emax: 100 to 120%; IC50: < 0.5 µM

What does the source list for `CCCCCN1CCN(C2=NC(=O)C(=Cc3ccc(OCc4ccc(C(F)(F)F)cc4C(F)(F)F)c(OC)c3)S2)CC1` [5-[1-[4-(2,4-Bis-trifluoromethyl-benzyloxy)-3-methoxy-phenyl]-methylidene]-2-(4-pentyl-piperazin-1-yl)-thiazol-4-one]?
Emax: 80 to 100%; IC50: 2 to 5 µM

Which Emax does the source give for `COc1cc(C=C2SC(N3CCCC(c4nc5cc(C)ccc5[nH]4)C3)=NC2=O)ccc1OCc1ccc(C(F)(F)F)cc1C(F)(F)F` (stereo not shown) [5-[1-[4-(2,4-Bis-trifluoromethyl-benzyloxy)-3-methoxy-phenyl]-methylidene]-2-[3-(5-methyl-1H-benzoimidazol-2-yl)-piperidin-1-yl]-thiazol-4-one] here?
Its Emax is 80 to 100%.

And the IC50?
Its IC50 is 1 to 2 µM.

What does the source list for `COc1cc(C=C2SC(N3CCN(CC4CCN(C)CC4)CC3)=NC2=O)ccc1OCc1ccc(C(F)(F)F)cc1C(F)(F)F` [5-[1-[4-(2,4-Bis-trifluoromethyl-benzyloxy)-3-methoxy-phenyl]-methylidene]-2-[4-(1-methyl-piperidin-4-ylmethyl)-piperazin-1-yl]-thiazol-4-one]?
Emax: 80 to 100%; IC50: 0.5 to 1 µM

Which Emax does the source give for `COc1cc(C=C2SC(N3CCN(Cc4ccc(Cl)cc4)CC3)=NC2=O)ccc1OCc1ccc(C(F)(F)F)cc1C(F)(F)F` [5-[1-[4-(2,4-Bis-trifluoromethyl-benzyloxy)-3-methoxy-phenyl]-methylidene]-2-[4-(4-chloro-benzyl)-piperazin-1-yl]-thiazol-4-one] here?
The Emax was 60 to 80%.

And the IC50?
The IC50 was 2 to 5 µM.

Which results are given for `COc1cc(C=C2SC(N3CCN(C)CC3)=NC2=O)ccc1OCc1ccc(C(F)(F)F)cc1C(F)(F)F` [Example 18, 5-[1-[4-(2,4-Bis-trifluoromethyl-benzyloxy)-3-methoxy-phenyl]-methylidene]-2-(4-methyl-piperazin-1-yl)-thiazol-4-one]?
Emax: 100 to 120%; IC50: < 0.5 µM

`COc1cc(C=C2SC(N3CCOCC3)=NC2=O)ccc1OCc1ccc(C(F)(F)F)cc1C(F)(F)F` [Example 19, 5-[1-[4-(2,4-Bis-trifluoromethyl-benzyloxy)-3-methoxy-phenyl]-methylidene]-2-morpholin-4-yl-thiazol-4-one] was tested. Which Emax did it give?
Its Emax is 80 to 100%.

And the IC50?
The IC50 was 0.5 to 1 µM.

`COc1cc(C=C2SC(N3CCSCC3)=NC2=O)ccc1OCc1ccc(C(F)(F)F)cc1C(F)(F)F` [Example 22, 5-[1-[4-(2,4-Bis-trifluoromethyl-benzyloxy)-3-methoxy-phenyl]-methylidene]-2-thiomorpholin-4-yl-thiazol-4-one] was tested. Which Emax did it give?
Its Emax is 100 to 120%.

What about the IC50 of the same molecule?
The IC50 was 0.5 to 1 µM.

Which results are given for `COc1cc(C=C2SC(N3CCNCC3)=NC2=O)ccc1OCc1ccc(C(F)(F)F)cc1C(F)(F)F` [Example 23, 5-[1-[4-(2,4-Bis-trifluoromethyl-benzyloxy)-3-methoxy-phenyl]-methylidene]-2-piperazin-1-yl-thiazol-4-one]?
Emax: 100 to 120%; IC50: < 0.5 µM

With `COc1cc(C=C2SC(N3CCN(S(C)(=O)=O)CC3)=NC2=O)ccc1OCc1ccc(C(F)(F)F)cc1C(F)(F)F` [Example 29, 5-[1-[4-(2,4-Bis-trifluoromethyl-benzyloxy)-3-methoxy-phenyl]-methylidene]-2-(4-methanesulfonyl-piperazin-1-yl)-thiazol-4-one] as the molecule, how does the Emax read?
The Emax was 100 to 120%.

What about the IC50 of the same molecule?
The IC50 was < 0.5 µM.
